Several values for one entry are separate records, joined by “and”; a condition that tells them apart may be missing. Equal values may be shown once.
Assays:
[1] = Food intake after intracerebroventricular administration to 24 h food-deprived rats; type: in vivo, rat
Procedure: (§1) Feeding experiments. Acute experiments. Food intake was measured in 24-h food-deprived rats (Navarro et al., J. Neurochem., 67:1982-1991 (1996)), administering drugs 15 min before food presentation. Subchronic experiments. Ad libitum fed rats received vehicle injections for three days. On day four, the animals were divided in two equal groups and gave them daily injections of vehicle or OEA (5 mg per kg at 1900 h) for 7 consecutive days, while measuring body weight, food intake and water intake.

[2] = Subchronic administration: food intake, body weight and water intake; type: in vivo, rat; settings: 5 mg per kg, i.p., daily for seven days
Procedure: as §1
OEA was subchronically administered to rats.

[3] = Body (rectal) temperature; type: in vivo, rat; settings: 5 or 20 mg per kg; FIG. 4e
Procedure: (§2) Other behavioral assays. The elevated plus maze test was conducted as described (Navarro et al., Neuroreport, 8:491-496 (1997)) after the administration of vehicle or OEA (20 mg per kg, i.p.). Horizontal activity in an open field (Beltramo et al., J. Neurosci., 20:3401-3407 (2000)) and pain threshold in the hot plate test (55° C.) (Beltramo et al., Science, 277:1094-1097 (1997)) were measured 15 min after injection of vehicle or OEA (20 mg per kg). Rectal temperature was measured using a digital thermometer (Martin-Calderón et al., Eur. J. Pharmacol., 344:77-86. (1998)).

Astrocyte = assay: [14C]oleate oxidation to ketone bodies in astrocytes; type: cell-based, rat
Adipocyte = assay: Lypolysis (glycerol release) in adipocytes; type: cell-based, rat
Hepatocyte = assay: [14C]oleate oxidation to ketone bodies in hepatocytes; type: cell-based, rat
Procedure: Compounds can also be assayed for their effect on fatty acid metabolism. The effect of the candidate compound on fatty acid metabolism can be measured by measurements of fatty acid oxidation in primary cultures of liver cells. Hepatocytes may be used to determine the rate of oleate oxidation to ketone bodies and carbon dioxide. Such cells can be isolated from adult rat liver by enzymatic digestion as described by Beynen et al. in Diabetes 28:828 (1979). Cells typically are cultured in suspension and incubated in Krebs-Henseleit's bicarbonate medium supplemented with bovine serum albumin and glucose as described by Guzmán & Geelen, Biochem. J. 287:487(1992). The protein concentration of the cultured cells can be determined and cells seeded in 2 ml media so that 4-6 mg protein per ml is present in the reaction mixture. Cells can be incubated for 10 minutes at 37° C. with [^14C]-oleic acid (Arnersham), in the presence or absence of 10 μM OEA, reactions may be stopped with 200 μl 2M perchloric acid and acid-soluble products extracted with chloroform/methanol/water (5:1:1, vol:vol:vol). The aqueous phase can be removed and washed twice more. Protein concentration can be determined using a Lowry assay. The rate of oleate conversion into ketone bodies may be expressed as rnmol of oleate oxidized per hour per mg protein and may be determined using liquid scintillation counting. […]

[4] = Acute food intake in 24-h food-deprived rats after i.p. administration; type: in vivo, rat
Procedure: as §1
The effects of systemically administered OEA on food intake in rats can be assessed using a 24 h fast. […] To define the selectivity of this response, various OEA analogs were evaluated for their ability to produce hypophagia.

[5] = Elevated plus maze anxiety test; type: in vivo, rat; settings: FIG. 4g
Procedure: as §2

For `CCCCCCCC/C=C\CCCCCCCC(=O)NCCO` [OEA, Oleoylethanolamide], the “effect on food intake after direct injection into the brain ventricles” value [1] was “ineffective”, the “food intake, 60 min” value ([1]; 0.4 μg per animal) was 4.8 ± 0.4 and the “food intake, 120 min” value ([1]; 0.4 μg per animal) was 6.6 ± 0.4. The “food intake, 240 min” value ([1]; 0.4 μg per animal) was 8.4 ± 0.4, the “food intake, 60 min” value ([1]; 2 μg per animal) was 4.9 ± 0.4 and the “food intake, 120 min” value ([1]; 2 μg per animal) was 6.6 ± 0.6. For the same molecule, the “food intake, 240 min” value ([1]; 2 μg per animal) was 8.7 ± 0.5, the “food intake, 60 min” value ([1]; 10 μg per animal) was 5.9 ± 0.2 and the “food intake, 120 min” value ([1]; 10 μg per animal) was 8.1 ± 0.4. The “food intake, 240 min” value ([1]; 10 μg per animal) was 9.6 ± 0.7, the cumulative food intake ([2]; FIG. 5a) was “small, but significant decrease” and the weight gain ([2]; FIG. 5b,c) was “profound inhibition”. For the same molecule, the water intake ([2]; FIG. 5d) was “did not affect”, the body temperature [3] was “did not alter” and the “Stimulatory effect of 10 μM OEA (%) on [14C]oleate oxidation to ketone bodies” value (Astrocyte; Astrocyte, 10 μM, 30 min incubation) was 2 ± 6%. The “fatty acid oxidation in words” value (Astrocyte; brain-derived astroglial cell cultures) was “no effect”, the “Stimulatory effect of 10 μM OEA (%) on lypolysis (glycerol release)” value (Adipocyte; Adipocyte, 10 μM, 30 min incubation) was 38 ± 16% and the “mobilization of triacylglycerol stores” value (Adipocyte; primary white adipose tissue cells) was “significant mobilization”. The “Stimulatory effect of 10 μM OEA (%) on [14C]oleate oxidation to ketone bodies” value (Hepatocyte; Hepatocyte, 10 μM, 10 min incubation) was 21+−6% and 21 ± 6%, the “fatty acid oxidation in words” value (Hepatocyte; primary cultures of liver cells) was “significantly stimulates” and the “half-maximally effective dose for hypophagia” value [4] was 5 mg per kg. For the same molecule, the “suppression of food intake (hypophagia)” value ([4]; 24-h food-deprived rats, 15 min before food presentation, FIG. 4a,b) was “dose- and time-dependent suppression” and the anxiety-like symptoms [5] was “did not produce anxiety-like symptoms”.

Source: patent US6911474B2, “Methods, compounds, and compositions for reducing body fat and modulating fatty acid metabolism” (The Regents of the University of California, priority 2001, dated 2005)
